Where two headings read alike, the source gives them in different places.

From paper PMC4850295, “Using a Genetically Encoded Sensor to Identify Inhibitors of Toxoplasma gondii Ca^2+ Signaling” (The Journal of Biological Chemistry, 2016) come the findings set out here.

The test deals with T1, GCaMP5-expressing T. gondii.
T1 construct: whole extracellular parasites expressing GCaMP5 Ca2+ sensor
Also on record: species or system GCaMP5-expressing Toxoplasma gondii, extracellular; GCaMP5 fluorescence (cytosolic Ca2+) after 100 uM zaprinast in compound-pretreated extracellular parasites, background-subtracted, relative to zaprinast alone. As to conditions: 100 uM zaprinast stimulation, 10 min pretreatment, mean of two replicates, 0.23 h. Put shortly: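 Read-out is GCaMP5 calcium fluorescence (ex 485/em 525 nm) taken 4 min after 100 μM zaprinast at 37 °C, following 10 min compound pretreatment at 10 μM in duplicate biological replicates. Values are basal-subtracted fold change versus zaprinast-only controls; parasites held extracellular in Ringer's solution.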

Take `Nc1nccc(-c2c(-c3ccc(F)cc3)ncn2C2CCNCC2)n1` [SB-220025-R]: the “fold change in fluorescence relative to zaprinast alone” value was 1.112.

Turning to `CCOc1nccc2c1nc(-c1nonc1N)n2CC` [SB-737198], the “fold change in fluorescence relative to zaprinast alone” value is reported as 0.8453.

On to `CSc1ccc(NC2=C(c3ccccc3Cl)C(=O)NC2=O)cc1` [SB-342411], for which the “fold change in fluorescence relative to zaprinast alone” value worked out at 0.8828.

Turning to `Cc1ccc(S(=O)(=O)Nc2ccc(Nc3nccc(Nc4cccc5[nH]ncc45)n3)cc2)cc1` [GSK581271A], the “fold change in fluorescence relative to zaprinast alone” value is listed as 0.8813.

For the compound `CCCCc1nn2ncccc2c1-c1ccnc(NC2CC2)n1` [GW684374X], the “fold change in fluorescence relative to zaprinast alone” value amounted to 0.8894.

In the case of `Nc1nccc2scc(-c3ccc4c(c3)CCN4C(=O)Cc3cc(F)ccc3F)c12` [GSK2587663A], the “fold change in fluorescence relative to zaprinast alone” value is recorded as 0.7245.

With `Clc1ccc(-c2nn3ncccc3c2-c2ccnc(Nc3ccc4c(c3)OCCO4)n2)cc1` [GW829116X], the “fold change in fluorescence relative to zaprinast alone” value came to 0.6156.

Regarding `O=C(Nc1n[nH]c2nc(-c3nccs3)c(Br)cc12)C1CCCC1` [SB-742609], the “fold change in fluorescence relative to zaprinast alone” value amounted to 1.102.

Regarding `Clc1ccc(-c2nn3ncccc3c2-c2ccnc(Nc3ccccc3)n2)cc1` [GW829055X], the “fold change in fluorescence relative to zaprinast alone” value came out at 1.188.

For `CN1CCN(Cc2ccc(-c3ccc4c(Nc5ccc(Oc6ccccn6)cc5)ccnc4c3)o2)CC1` [GW567140X], the “fold change in fluorescence relative to zaprinast alone” value is given as 1.304.

Take `CN(C)CCCC(=O)Nc1n[nH]c2nnc(-c3ccccc3)cc12` [SB-627772-A]: the “fold change in fluorescence relative to zaprinast alone” value is 1.028.

With `CN1CCN(Cc2ccc(NC(=O)Nc3ccc(N(C)c4ccnc(Nc5ccc(CS(C)(=O)=O)cc5)n4)cc3)cc2)CC1` [GW827654A], the “fold change in fluorescence relative to zaprinast alone” value is 1.248.

As to `CCOC(=O)N1CCC(n2cnc(-c3ccc(F)cc3)c2-c2ccnc(N)n2)CC1` [SB-219952], the “fold change in fluorescence relative to zaprinast alone” value amounted to 0.8316.

For the compound `NCC(NC(=O)c1cc(-c2ccnc3[nH]ccc23)cs1)c1ccccc1` (centres unmarked) [GSK1229959A], the “fold change in fluorescence relative to zaprinast alone” value is 0.7412.

As to `CN1CCC(n2cnc(-c3ccc(F)cc3)c2-c2ccnc(NC3CCNCC3)n2)CC1` [SB-229482], the “fold change in fluorescence relative to zaprinast alone” value worked out at 0.6668.

On to `C[C@@H](Oc1cc(-n2cnc3cc(-c4ccnc(NCCS(C)(=O)=O)c4)ccc32)sc1C(N)=O)c1ccccc1Cl` [GSK907232A], for which the “fold change in fluorescence relative to zaprinast alone” value stood at 1.132.

Take `Nc1nonc1-c1nc2cnccc2n1C1CC1` [SB-736302]: the “fold change in fluorescence relative to zaprinast alone” value is listed as 1.282.

Regarding `CN(C)CC(O)COc1ccc(Nc2nccc(-c3cnn4nc(N5CCOCC5)ccc34)n2)cc1` (centres unmarked) [GW767488X], the “fold change in fluorescence relative to zaprinast alone” value is given as 0.9765.

For the compound `COc1ccc(Nc2nccc(-c3ccc(NC(=O)c4cc5cc(F)ccc5[nH]4)cc3)n2)cc1` [GSK1229496A], the “fold change in fluorescence relative to zaprinast alone” value came out at 1.727.

Consider `Cc1ccc2c(-c3ccnc(Nc4ccc(C(F)(F)F)cc4)n3)cnn2n1` [GW819776X], for which the “fold change in fluorescence relative to zaprinast alone” value is 1.244.

On to `Nc1cccc(-c2ccc3c(N)n[nH]c3c2)n1` [GSK2192730A], for which the “fold change in fluorescence relative to zaprinast alone” value came out at 1.059.

As for `COc1cccc(NC(=O)NC2CCN(c3ccnc(Nc4ccc(F)cc4)n3)C2)c1` (centres unmarked) [GSK1379721A], the “fold change in fluorescence relative to zaprinast alone” value was found to be 0.358.

As to `COc1ccc(C)c(Nc2ccnc(Nc3ccc(-c4cnc[nH]4)cc3)n2)c1` [GW784041A], the “fold change in fluorescence relative to zaprinast alone” value worked out at 1.009.

In the case of `CCS(=O)(=O)c1ccc(OC)c(Nc2ncc(-c3cccc(C(C)=O)c3)o2)c1` [GW621431X], the “fold change in fluorescence relative to zaprinast alone” value turned out to be 1.216.

`Cn1c(-c2nonc2N)nc2cnccc21` [SB-736290]: the “fold change in fluorescence relative to zaprinast alone” value is 1.181.

Turning to `NCC(NC(=O)c1cc(-c2cn[nH]c2)c(-c2ccnc3[nH]ccc23)s1)c1ccccc1` (centres unmarked) [GSK1325775A], the “fold change in fluorescence relative to zaprinast alone” value was determined as 1.276.

For `Cc1c(O)cccc1Nc1ccnc2ccc(C(F)(F)F)cc12` [GW466413A], the “fold change in fluorescence relative to zaprinast alone” value came to 1.009.

Regarding `CCCCc1nn2ncccc2c1-c1ccnc(Nc2ccc(N3CCN(C)CC3)cc2)n1` [GW684941X], the “fold change in fluorescence relative to zaprinast alone” value is given as 0.4893.

In the case of `COc1cc(N2CCN(C(C)C)CC2)ccc1Nc1nc(Nc2cccc(F)c2C(=O)O)c2cc[nH]c2n1` [GSK1819799A], the “fold change in fluorescence relative to zaprinast alone” value is on record as 1.115.

For `COC(=O)Nc1nc2ccc(Oc3ccc(NC(=O)Nc4cccc(SC)c4)cc3)cc2[nH]1` [GW697999A], the “fold change in fluorescence relative to zaprinast alone” value is listed as 1.427.

Consider `O=C1NC(=O)C(c2cccc(Cl)c2)=C1Nc1ccc(O)c(Cl)c1` [SB-409514], for which the “fold change in fluorescence relative to zaprinast alone” value worked out at 1.132.

As for `CSc1nccc(-c2c(-c3ccc(F)cc3)ncn2CCCN2CCOCC2)n1` [SB-217146-A], the “fold change in fluorescence relative to zaprinast alone” value worked out at 0.6021.

On to `NC[C@H](CC1CCCCC1)NC(=O)c1cc(Br)c(-c2ccnc3[nH]ccc23)s1` [GSK1581427A], for which the “fold change in fluorescence relative to zaprinast alone” value came out at 1.128.

Consider `O=c1[nH]ccc2nc(N[C@@H]3CCNC3)nc(Nc3ccc4c(c3)S(=O)(=O)CC4)c12` [GSK2181306A], for which the “fold change in fluorescence relative to zaprinast alone” value is on record as 1.236.

`NS(=O)(=O)c1cccc(N=Cc2c(O)[nH]c3ccc(S(=O)(=O)Cc4c(Cl)cccc4Cl)cc23)c1` [GSK398099A]: the “fold change in fluorescence relative to zaprinast alone” value stood at 1.056.

On to `O=c1[nH]ccc2nc(N[C@@H]3CCNC3)nc(Nc3cc(Cl)cc(Cl)c3)c12` [GSK2188764A (Enh2)], for which the “fold change in fluorescence relative to zaprinast alone” value is recorded as 2.366.

For `Nc1ncnc2occ(-c3ccc(NC(=O)Nc4cc(C(F)(F)F)ccc4F)cc3)c12` [GW770249A], the “fold change in fluorescence relative to zaprinast alone” value (10 µM) is 0.2788.

On to `Nc1nccc(-c2c(-c3ccc(F)cc3)ncn2C2CCN(Cc3ccccc3)CC2)n1` [SB-219980], for which the “fold change in fluorescence relative to zaprinast alone” value is recorded as 0.5084.

Regarding `c1ccc(-c2ccc3c(Nc4ccc5[nH]ccc5c4)ccnc3c2)nc1` [GW440138A], the “fold change in fluorescence relative to zaprinast alone” value is given as 1.081.

As for `CCS(=O)(=O)c1ccc(OC)c(Nc2ncc(-c3ccc(F)cc3)o2)c1` [GW591947A], the “fold change in fluorescence relative to zaprinast alone” value was 1.203.

Consider `Nc1nc(-c2ccc3c(N)n[nH]c3c2)cc(N2CCCC(NC(=O)c3ccccc3)C2)n1` (centres unmarked) [GSK2286775B], for which the “fold change in fluorescence relative to zaprinast alone” value is 1.202.

With `NS(=O)(=O)c1ccc(N/N=C2\C(=O)Nc3ccc4ncccc4c32)cc1` [GW305178X], the “fold change in fluorescence relative to zaprinast alone” value is 0.9853.

As for `C[C@@H](Oc1cc(-n2cnc3ccc(OCC4CCN(C)CC4)cc32)sc1C(N)=O)c1ccccc1Cl` [GSK571989A], the “fold change in fluorescence relative to zaprinast alone” value is on record as 0.9822.

As for `CN(c1ccc2c(c1)nc(NCc1ccc(F)cc1)n2C)c1ccnc(Nc2ccc(CS(C)(=O)=O)cc2)n1` [GW813244A], the “fold change in fluorescence relative to zaprinast alone” value stood at 1.154.

As for `Cc1ccc(-c2cc3c(NC(=O)C4CC4)ncnc3o2)cc1` [GW819230X], the “fold change in fluorescence relative to zaprinast alone” value is 1.19.

As to `CCC(CC)(CC)n1cnc2c(N)ncnc21` [SKF-97620], the “fold change in fluorescence relative to zaprinast alone” value is 0.9821.

With `CS(=O)(=O)CCNCc1ccc(-c2ccc3ncnc(Nc4ccc(OCc5ccccc5)c(Br)c4)c3c2)o1` [GW580496A], the “fold change in fluorescence relative to zaprinast alone” value came to 1.191.

For `CC(C(=O)NC1CCN(c2ccnc(Nc3ccc(F)cc3)n2)C1)c1ccc(Cl)cc1` (centres unmarked) [GSK1379713A], the “fold change in fluorescence relative to zaprinast alone” value is 0.7096.

Take `CC1=C(C(=O)Nc2ccc3[nH]ncc3c2)C(c2ccc(F)cc2)N=C(c2ccc(C(F)(F)F)nc2)N1` (centres unmarked) [GSK317354A]: the “fold change in fluorescence relative to zaprinast alone” value was 1.324.

As for `Fc1ccc(-c2nn3c(OCC(F)(F)F)cccc3c2-c2ccncc2)cc1` [GW514784X], the “fold change in fluorescence relative to zaprinast alone” value stood at 0.04564.

Turning to `Cc1ccc(Nc2ccnc(Nc3ccc4c(c3)CS(=O)(=O)C4)n2)cc1O` [GW579362A], the “fold change in fluorescence relative to zaprinast alone” value was found to be 1.38.

Regarding `CCn1c(-c2nonc2N)nc2c(C#CC(C)(C)O)ncc(OC[C@@H]3CCCN3)c21` [GSK614526A], the “fold change in fluorescence relative to zaprinast alone” value amounted to 1.198.

For `NS(=O)(=O)c1ccc(N/N=C2\C(=O)Nc3ccc(-c4cnco4)cc32)cc1` [GW276655X], the “fold change in fluorescence relative to zaprinast alone” value was determined as 1.083.

Consider `Cc1cccc2c1NC(=O)/C2=N\Nc1ccc(S(N)(=O)=O)cc1` [GW282536X], for which the “fold change in fluorescence relative to zaprinast alone” value came to 1.189.

Turning to `NS(=O)(=O)c1ccc(N/N=C2\C(=O)Nc3ccc(C(=O)NCCc4c[nH]cn4)cc32)cc1` [GW300660X], the “fold change in fluorescence relative to zaprinast alone” value is 1.243.

For `O=C1NC(=O)C(N2CCc3ccccc32)=C1c1cccc(Cl)c1` [SB-408010], the “fold change in fluorescence relative to zaprinast alone” value is reported as 0.7986.

As to `O=c1[nH]cc(-c2ccc(N3CCOCC3)cc2)c2sc(-c3cn[nH]c3)cc12` [GSK2276055A], the “fold change in fluorescence relative to zaprinast alone” value is 0.8496.

`Nc1n[nH]c2nnc(-c3ccccc3)cc12` [SB-517389]: the “fold change in fluorescence relative to zaprinast alone” value was 1.055.

Turning to `Nc1nc(-c2ccc(F)cc2)c(-c2ccc3ncccc3n2)s1` [GW785804X], the “fold change in fluorescence relative to zaprinast alone” value was 1.356.

Take `Cc1cc(-c2ccco2)cc(C)c1/C=C/c1cncc(-c2nn[nH]n2)c1` [GW458344A]: the “fold change in fluorescence relative to zaprinast alone” value is recorded as 1.482.

As for `COc1cccc(C2=C(Nc3cccc(Cl)c3)C(=O)NC2=O)c1` [SB-341556], the “fold change in fluorescence relative to zaprinast alone” value is recorded as 1.087.

As to `OCCCNc1nccc(-c2c(-c3ccc(F)cc3)nn3cc(C(F)(F)F)ccc23)n1` [GW569293X], the “fold change in fluorescence relative to zaprinast alone” value worked out at 0.8575.
